From PubChem BioAssay (NCI)
Several values for one entry are separate records, joined by “and”; a condition that tells them apart may be missing. Equal values may be shown once.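 Results reflect a 48-hour exposure of cells in 96-well plates to compound at five concentrations. GI50 is the concentration that inhibits growth by half. TGI denotes the concentration required for complete inhibition of growth.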

Legend:
Experiment in all cases: inhibition of tumour cell growth, NCI panel, 48 h
NCI-H460 lung = tested on: NCI-H460 lung
K-562 leukemia = tested on: K-562 leukemia
A549 NSCLC = tested on: A549 NSCLC
EKVX NSCLC = tested on: EKVX NSCLC
SW-620 colon = tested on: SW-620 colon
BT-549 breast = tested on: BT-549 breast
HOP-92 NSCLC = tested on: HOP-92 NSCLC
HS 578T breast = tested on: HS 578T breast
MDA-MB-435 = tested on: MDA-MB-435
OVCAR-4 ovarian = tested on: OVCAR-4 ovarian
HCC-2998 colon = tested on: HCC-2998 colon
HOP-62 NSCLC = tested on: HOP-62 NSCLC
ACHN renal = tested on: ACHN renal
NCI-H522 lung = tested on: NCI-H522 lung
HCT-15 colon = tested on: HCT-15 colon
OVCAR-3 ovarian = tested on: OVCAR-3 ovarian
UACC-257 melanoma = tested on: UACC-257 melanoma
NCI/ADR-RES ovarian = tested on: NCI/ADR-RES ovarian
HCT-116 colon = tested on: HCT-116 colon
SNB-19 CNS = tested on: SNB-19 CNS
SK-MEL-2 melanoma = tested on: SK-MEL-2 melanoma
HT29 colon = tested on: HT29 colon
LOX IMVI melanoma = tested on: LOX IMVI melanoma
UO-31 renal = tested on: UO-31 renal
SF-268 CNS = tested on: SF-268 CNS
IGROV1 ovarian = tested on: IGROV1 ovarian
SN12C renal = tested on: SN12C renal
A498 renal = tested on: A498 renal
PC-3 prostate = tested on: PC-3 prostate
UACC-62 melanoma = tested on: UACC-62 melanoma
CCRF-CEM leukemia = tested on: CCRF-CEM leukemia
SK-MEL-28 melanoma = tested on: SK-MEL-28 melanoma
RPMI-8226 leukemia = tested on: RPMI-8226 leukemia
MOLT-4 leukemia = tested on: MOLT-4 leukemia
KM12 colon = tested on: KM12 colon
HL-60(TB) leukemia = tested on: HL-60(TB) leukemia
DU-145 prostate = tested on: DU-145 prostate
MCF7 breast = tested on: MCF7 breast
NCI-H23 lung = tested on: NCI-H23 lung
M14 melanoma = tested on: M14 melanoma
SR leukemia = tested on: SR leukemia
786-0 renal = tested on: 786-0 renal
MALME-3M melanoma = tested on: MALME-3M melanoma
COLO 205 colon = tested on: COLO 205 colon
OVCAR-8 ovarian = tested on: OVCAR-8 ovarian
SNB-75 CNS = tested on: SNB-75 CNS
OVCAR-5 ovarian = tested on: OVCAR-5 ovarian
MDA-MB-231 breast = tested on: MDA-MB-231 breast
SK-OV-3 ovarian = tested on: SK-OV-3 ovarian
U251 CNS = tested on: U251 CNS
SF-539 CNS = tested on: SF-539 CNS
SF-295 CNS = tested on: SF-295 CNS

Structure (SMILES): COC(=O)[C@@H](C)C[C@H](Cc1ccc(F)cc1)NC(=O)c1csc([C@@H](C[C@H](C(C)C)N(C)C(=O)[C@@H](NC(=O)[C@H]2CCCCN2C)C(C)C)OC(C)=O)n1
- GI50 (NCI-H460 lung): 0.678 nM and 6.3 nM
- TGI (NCI-H460 lung): > 16700 nM
- TGI (K-562 leukemia): > 16700 nM
- GI50 (A549 NSCLC): 2.77 nM and 10.7 nM
- TGI (A549 NSCLC): > 16700 nM
- TGI (EKVX NSCLC): > 16700 nM
- TGI (SW-620 colon): > 16700 nM
- TGI (BT-549 breast): 56.8 nM and 261 nM
- GI50 (HOP-92 NSCLC): 215 nM and 78.3 nM
- TGI (HOP-92 NSCLC): 11800 nM
- GI50 (HS 578T breast): 1.02 nM and 6.12 nM
- TGI (MDA-MB-435): 0.47 nM and 4.17 nM
- TGI (OVCAR-4 ovarian): > 16700 nM
- TGI (HCC-2998 colon): > 16700 nM
- GI50 (HOP-62 NSCLC): 1.87 nM and 10.2 nM
- TGI (HOP-62 NSCLC): > 16700 nM
- GI50 (ACHN renal): 134 nM
- TGI (ACHN renal): > 16700 nM
- GI50 (NCI-H522 lung): 0.2 nM
- TGI (NCI-H522 lung): 0.82 nM
- TGI (HCT-15 colon): > 16700 nM
- TGI (OVCAR-3 ovarian): 2.16 nM and 12 nM
- GI50 (UACC-257 melanoma): > 16700 nM
- TGI (UACC-257 melanoma): > 16700 nM
- TGI (NCI/ADR-RES ovarian): > 16700 nM
- TGI (HCT-116 colon): 225 nM
- TGI (SNB-19 CNS): > 16700 nM
- GI50 (SK-MEL-2 melanoma): 0.792 nM and 5.03 nM
- TGI (SK-MEL-2 melanoma): > 16700 nM
- TGI (HT29 colon): > 16700 nM
- GI50 (LOX IMVI melanoma): 1.84 nM and 9.5 nM
- TGI (LOX IMVI melanoma): > 16700 nM
- TGI (UO-31 renal): > 16700 nM
- GI50 (SF-268 CNS): 4.41 nM and 9.23 nM
- TGI (SF-268 CNS): > 16700 nM
- TGI (IGROV1 ovarian): > 16700 nM
- GI50 (SN12C renal): 1.97 nM and 13 nM
- TGI (SN12C renal): > 16700 nM
- GI50 (A498 renal): 4.69 nM and 20.2 nM
- TGI (A498 renal): 111 nM
- GI50 (PC-3 prostate): 1.96 nM and 7.56 nM
- TGI (PC-3 prostate): > 16700 nM
- TGI (UACC-62 melanoma): > 16700 nM
- GI50 (CCRF-CEM leukemia): 0.973 nM and 6.39 nM
- TGI (CCRF-CEM leukemia): > 16700 nM
- GI50 (SK-MEL-28 melanoma): > 16700 nM
- TGI (SK-MEL-28 melanoma): > 16700 nM
- GI50 (RPMI-8226 leukemia): 1.08 nM and 6.82 nM
- TGI (RPMI-8226 leukemia): > 16700 nM
- GI50 (MOLT-4 leukemia): 2.45 nM and 8.76 nM
- TGI (MOLT-4 leukemia): > 16700 nM
- GI50 (KM12 colon): 0.953 nM and 6.36 nM
- TGI (KM12 colon): > 16700 nM
- TGI (HL-60(TB) leukemia): 2.29 nM and 9.52 nM
- GI50 (DU-145 prostate): 0.984 nM and 5.25 nM
- TGI (DU-145 prostate): 21.4 nM
- TGI (MCF7 breast): > 16700 nM
- GI50 (NCI-H23 lung): 3.55 nM and 13.4 nM
- TGI (NCI-H23 lung): > 16700 nM
- GI50 (M14 melanoma): 1.19 nM and 5.39 nM
- TGI (M14 melanoma): 763 nM and 79 nM
- GI50 (SR leukemia): 0.437 nM and 1.67 nM
- TGI (SR leukemia): > 16700 nM
- GI50 (786-0 renal): 3.19 nM and 14.7 nM
- TGI (786-0 renal): > 16700 nM
- GI50 (MALME-3M melanoma): 4510 nM
- TGI (MALME-3M melanoma): > 16700 nM
- GI50 (COLO 205 colon): 6.41 nM
- TGI (COLO 205 colon): 65.1 nM
- GI50 (OVCAR-8 ovarian): 2.56 nM and 11.6 nM
- TGI (OVCAR-8 ovarian): > 16700 nM
- GI50 (SNB-75 CNS): 0.986 nM and 5.22 nM
- TGI (SNB-75 CNS): > 16700 nM
- TGI (OVCAR-5 ovarian): > 16700 nM
- GI50 (MDA-MB-231 breast): 2.3 nM and 15.8 nM
- GI50 (SK-OV-3 ovarian): 7.36 nM and 55.3 nM
- TGI (SK-OV-3 ovarian): > 16700 nM
- GI50 (U251 CNS): 1.51 nM and 9.14 nM
- TGI (U251 CNS): > 16700 nM
- GI50 (SF-539 CNS): 1.53 nM and 7.14 nM
- TGI (SF-295 CNS): > 16700 nM
